In US20100285959A1, “HERBICIDAL MIXTURES” (priority 2006, published 2010):

Key:
[1] = test system: Ipomoea grandiflora (IPOGF); assay: Test 11 field trial, preemergence; assay type: in vivo
From the text: (§1) Corn seeds (hybrid ‘Pioneer 3041’) were planted in mid spring season, 5 cm deep in a clay soil having 2.6% organic matter and a pH of 5.6. Plots were 8 m long by 1.5 m wide with rows spaced 80 cm apart. Seeds were spaced 15 cm apart within the rows. The field was managed using conventional tillage practices. […] Treatments consisted of Compound 2 or
(§2) Goosegrass was not evaluated 16 or 91 days after application.

[2] = test system: yellow foxtail (SETLU); assay: Test 6 field trial, postemergence; assay type: in vivo, Setaria glauca
From the text: (§3) Corn seeds (hybrid ‘Pioneer 35Y62’) were planted in mid spring season, 3.8 cm deep in a silt loam soil having 4% organic matter and a pH of 5.8. Plots were 10.7 m long by 1.5 m wide with rows spaced 76 cm apart. Seeds were spaced 18 cm apart within the rows. The field was managed using conventional tillage practices. […] All treatments included a surfactant except glufosinate treatments, both alone and in combination. […] Results are summarized in Table 6 and are the means of the three replicates.

[3] = test system: corn (ZEAMD); assay: Test 6 field trial, postemergence; assay type: in vivo, Zea mays ssp. indentata; details: hybrid Pioneer 35Y62, corn (Zea mays ssp. indentata), in vivo
From the text: as §3

[4] = test system: common lambsquarters (CHEAL); assay: Test 5 field trial, postemergence; assay type: in vivo, Chenopodium album
From the text: Corn seeds (hybrid ‘Pioneer 38H69’) were planted in mid spring season, 5.1 cm deep in a silty clay loam soil having 3% organic matter and a pH of 6.5. Plots were 9.1 m long by 3.0 m wide with rows spaced 76 cm apart. The field was managed using conventional tillage practices. […] All treatments included a surfactant except glufosinate treatments, both alone and in combination. […] Results are summarized in Table 5 and are the means of the three replicates.

[5] = test system: corn (ZEAMD); assay: Test 10 field trial, preemergence; assay type: in vivo, Zea mays ssp. indentata; details: hybrid Pioneer 33P65 RR, corn (Zea mays ssp. indentata), in vivo, 28 days after application
From the text: (§4) Corn seeds (hybrid ‘Pioneer 33P65 RR’) were planted in mid spring season, 2.5 cm deep in a silt loam soil. Plots were 9.1 m long by 3.0 m wide with rows spaced 76 cm apart. The field was managed using conventional tillage practices. […] Results are the means of the three replicates.

[6] = test system: corn (ZEAMD); assay: Test 8 field trial, preemergence; assay type: in vivo, Zea mays ssp. indentata; details: hybrid Pioneer 31G96, corn (Zea mays ssp. indentata), in vivo, 56 days after application
From the text: (§5) Corn seeds (hybrid ‘Pioneer 31G96’) were planted in mid spring season, 3.8 cm deep in a clay loam soil having 2% organic matter and a pH of 6.6. Plots were 6.1 m long by 3.0 m wide with rows spaced 76 cm apart. Seeds were spaced 15 cm apart within the rows. The field was managed using conventional tillage practices. […] A few of the weed species could not be evaluated at every timing. […] Results are the means of the three replicates.

[7] = test system: common cocklebur (XANST); assay: Test 10 field trial, preemergence; assay type: in vivo, Xanthium strumarium ssp. strumarium; details: 28 DAA
From the text: as §4

[8] = test system: tropical spiderwort (COMBE); assay: Test 11 field trial, preemergence; assay type: in vivo, Commelina benghalensis; set-up: scale not given here; details: alone or + atrazine 1500 or metolachlor 2500
From the text: as §1, §2

[9] = test system: giant foxtail (SETFA); assay: Test 8 field trial, preemergence; assay type: in vivo, Setaria faberi
From the text: as §5

[10] = test system: common waterhemp (AMATA); assay: Test 10 field trial, preemergence; assay type: in vivo, Amaranthus tamariscinus; details: 28 DAA
From the text: as §4

[11] = g a.i./ha: Cpd 2 50, S-Metolachlor 1870
[12] = g a.i./ha: Cpd 2 100, Atrazine 1680, S-Metolachlor 1870
[13] = g a.i./ha: Cpd 2 150, S-Metolachlor 1870

## COC(=O)c1nc(C2CC2)nc(N)c1Cl [Compound 2, methyl 6-amino-5-chloro-2-cyclopropyl-4-pyrimidinecarboxylate]
[1]; 16 DAA, Cpd 2/Cpd 1 at 62 g a.i./ha, alone or + atrazine 1500 or metolachlor 2500
  IPOGF Obs: 0
[1]; 16 DAA, Cpd 2/Cpd 1 at 125 g a.i./ha, alone or + atrazine 1500 or metolachlor 2500
  IPOGF Obs: 40
[1]; 30 DAA, Cpd 2/Cpd 1 at 62 g a.i./ha, alone or + atrazine 1500 or metolachlor 2500
  IPOGF Obs: 40
[1]; 30 DAA, Cpd 2/Cpd 1 at 125 g a.i./ha, alone or + atrazine 1500 or metolachlor 2500
  IPOGF Obs: 60
[1]; 44 DAA, Cpd 2/Cpd 1 at 62 g a.i./ha, alone or + atrazine 1500 or metolachlor 2500
  IPOGF Obs: 0
[1]; 44 DAA, Cpd 2/Cpd 1 at 125 g a.i./ha, alone or + atrazine 1500 or metolachlor 2500
  IPOGF Obs: 50
[1]; 62 DAA, 62 g a.i./ha, scale 0 to 100
  IPOGF Obs: 0
[1]; 62 DAA, 125 g a.i./ha, scale 0 to 100
  IPOGF Obs: 0
[1]; 91 DAA, 62 g a.i./ha, scale 0 to 100
  IPOGF Obs: 0
[1]; 91 DAA, 125 g a.i./ha, scale 0 to 100
  IPOGF Obs: 0
[2]; 14 DAA, 30 g a.i./ha
  SETLU Obs: 0%
[2]; 14 DAA, 60 g a.i./ha
  SETLU Obs: 0%
[2]; 28 DAA, 30 g a.i./ha
  SETLU Obs: 0%
[2]; 28 DAA, 60 g a.i./ha
  SETLU Obs: 0%
[3]; 14 days after application
  ZEAMD Obs: 0%
[3]; 28 days after application
  ZEAMD Obs: 0%
[4]; 16 DAA, Cpd 2 30 g a.i./ha alone or with glufosinate 470 or glyphosate 1120
  CHEAL Obs: 83%
[4]; 16 DAA, Cpd 2 60 g a.i./ha alone or with atrazine 1120, glufosinate 470 or glyphosate 1120
  CHEAL Obs: 87%
[4]; 31 DAA, Cpd 2 30 g a.i./ha alone or with glufosinate 470 or glyphosate 1120
  CHEAL Obs: 82%
[4]; 31 DAA, Cpd 2 60 g a.i./ha alone or with atrazine 1120, glufosinate 470 or glyphosate 1120
  CHEAL Obs: 99%
[5]
  ZEAMD Obs: 0%
[6]
  ZEAMD Obs: 0%
[7]; [11]
  XANST Obs: 10%
[7]; [12]
  XANST Obs: 7%
[7]; [13]
  XANST Obs: 27%
[8]; 16 DAA, Cpd 2/Cpd 1 at 62 g a.i./ha
  COMBE Obs: 40
[8]; 16 DAA, Cpd 2/Cpd 1 at 125 g a.i./ha
  COMBE Obs: 60
[8]; 30 DAA, Cpd 2/Cpd 1 at 62 g a.i./ha
  COMBE Obs: 40
[8]; 30 DAA, Cpd 2/Cpd 1 at 125 g a.i./ha
  COMBE Obs: 60
[8]; 44 DAA, Cpd 2/Cpd 1 at 62 g a.i./ha
  COMBE Obs: 40
[8]; 44 DAA, Cpd 2/Cpd 1 at 125 g a.i./ha
  COMBE Obs: 60
[8]; 62 DAA, Cpd 2/Cpd 1 at 62 g a.i./ha
  COMBE Obs: 0
[8]; 62 DAA, Cpd 2/Cpd 1 at 125 g a.i./ha
  COMBE Obs: 40
[8]; 91 DAA, Cpd 2/Cpd 1 at 62 g a.i./ha
  COMBE Obs: 0
[8]; 91 DAA, Cpd 2/Cpd 1 at 125 g a.i./ha
  COMBE Obs: 40
[9]; 19 DAA, g a.i./ha: Cpd 2 50, S-Metolachlor 1870
  SETFA Obs: 33%
[9]; 19 DAA, g a.i./ha: Cpd 2 100, Atrazine 1680, S-Metolachlor 1870
  SETFA Obs: 40%
[9]; 19 DAA, g a.i./ha: Cpd 2 150, S-Metolachlor 1870
  SETFA Obs: 43%
[9]; 29 DAA, g a.i./ha: Cpd 2 50, S-Metolachlor 1870
  SETFA Obs: 32%
[9]; 29 DAA, g a.i./ha: Cpd 2 100, Atrazine 1680, S-Metolachlor 1870
  SETFA Obs: 42%
[9]; 29 DAA, g a.i./ha: Cpd 2 150, S-Metolachlor 1870
  SETFA Obs: 47%
[9]; 56 DAA, g a.i./ha: Cpd 2 50, S-Metolachlor 1870
  SETFA Obs: 8%
[9]; 56 DAA, g a.i./ha: Cpd 2 100, Atrazine 1680, S-Metolachlor 1870
  SETFA Obs: 7%
[9]; 56 DAA, g a.i./ha: Cpd 2 150, S-Metolachlor 1870
  SETFA Obs: 17%
[10]; [11]
  AMATA Obs: 20%
[10]; [12]
  AMATA Obs: 10%
[10]; [13]
  AMATA Obs: 23%
